# Results published in patent US12709596B2, “Molecules” (ENA Respiratory Pty Ltd, priority 2019, dated 2026).
# Assays:
# human TLR2 (hTLR2) = target: T1, human TLR2 (hTLR2) (Homo sapiens, UniProt O60603); assay: HEK-BLUE-hTLR2 cell assay (NF-kB induced SEAP, read at 620 nm); assay type: cell-based; settings: HEK-BLUE-hTLR2 cells, 16 hr
# T1 construct: host or cells: HEK293 (HEK-BLUE-hTLR2)
# Description: The potency of the compounds as activators of human TLR-2s is tested in an in vitro assay in HEK-BLUE-hTLR2 cells.
# HEK-BLUE-hTLR2 cells are designed for studying the stimulation of human TLR2 (hTLR2) by monitoring the activation of NF-kB. HEK-BLUE-hTLR2 cells are obtained by co-transfection of the hTLR2 and SEAP (secreted embryonic alkaline phosphatase) reporter genes into HEK293 cells. Stimulation with a TLR2 ligand activates NF-kB which induces the production of SEAP.
# HEK-BLUE-hTLR2 cells were purchased from InvivoGen (San Diego, CA, USA). Cells were grown in DMEM supplemented with 10% FCS, 100 U/ml penicillin, 100 ug/ml streptomycin and 2 mM L-glutamine, 100 μg/mL Normocin in the presence of selection antibiotic purchased from InvivoGen and passaged when 70% confluence was reached per manufacturer's recommendation. […]
# [1] = Stability II: 9 day stability under accelerated conditions in EDTA/saline pH 5 by HPLC; assay type: physicochemical; settings: 40° C./75% RH, 9 days
# Description: Stability was measured using reversed phase HPLC with a UV detector analytical wavelength of 205 nm. Peak areas of each compound at the 9 day time point were compared with areas at time zero. Compound stability at day 9 was calculated as a percentage of the time zero peak area data. Compound stability was further assessed by comparison with a reference sample of the same compound. […] Thawed samples were sonicated and measured by HPLC.
# T1 sequence (O60603 21-784): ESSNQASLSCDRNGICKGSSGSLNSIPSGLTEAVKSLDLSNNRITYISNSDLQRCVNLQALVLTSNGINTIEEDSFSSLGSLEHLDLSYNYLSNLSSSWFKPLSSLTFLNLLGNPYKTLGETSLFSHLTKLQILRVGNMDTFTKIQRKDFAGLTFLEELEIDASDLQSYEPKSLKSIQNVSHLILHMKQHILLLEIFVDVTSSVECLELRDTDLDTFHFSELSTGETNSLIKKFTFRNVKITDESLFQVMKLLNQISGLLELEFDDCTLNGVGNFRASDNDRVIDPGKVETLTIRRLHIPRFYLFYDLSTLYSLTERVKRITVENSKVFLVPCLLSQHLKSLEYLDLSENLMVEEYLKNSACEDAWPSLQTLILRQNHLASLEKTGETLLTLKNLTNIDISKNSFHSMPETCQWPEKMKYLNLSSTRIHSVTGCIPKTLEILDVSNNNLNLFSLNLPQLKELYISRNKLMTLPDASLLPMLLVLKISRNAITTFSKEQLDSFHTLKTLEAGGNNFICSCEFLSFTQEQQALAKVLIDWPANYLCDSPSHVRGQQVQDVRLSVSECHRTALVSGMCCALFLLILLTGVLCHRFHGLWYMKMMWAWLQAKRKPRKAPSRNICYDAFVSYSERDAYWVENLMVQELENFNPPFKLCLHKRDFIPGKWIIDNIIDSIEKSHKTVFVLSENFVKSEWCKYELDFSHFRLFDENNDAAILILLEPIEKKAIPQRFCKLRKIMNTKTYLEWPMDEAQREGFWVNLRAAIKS
# T1 sequence (Q9Y2C9 32-796 partner): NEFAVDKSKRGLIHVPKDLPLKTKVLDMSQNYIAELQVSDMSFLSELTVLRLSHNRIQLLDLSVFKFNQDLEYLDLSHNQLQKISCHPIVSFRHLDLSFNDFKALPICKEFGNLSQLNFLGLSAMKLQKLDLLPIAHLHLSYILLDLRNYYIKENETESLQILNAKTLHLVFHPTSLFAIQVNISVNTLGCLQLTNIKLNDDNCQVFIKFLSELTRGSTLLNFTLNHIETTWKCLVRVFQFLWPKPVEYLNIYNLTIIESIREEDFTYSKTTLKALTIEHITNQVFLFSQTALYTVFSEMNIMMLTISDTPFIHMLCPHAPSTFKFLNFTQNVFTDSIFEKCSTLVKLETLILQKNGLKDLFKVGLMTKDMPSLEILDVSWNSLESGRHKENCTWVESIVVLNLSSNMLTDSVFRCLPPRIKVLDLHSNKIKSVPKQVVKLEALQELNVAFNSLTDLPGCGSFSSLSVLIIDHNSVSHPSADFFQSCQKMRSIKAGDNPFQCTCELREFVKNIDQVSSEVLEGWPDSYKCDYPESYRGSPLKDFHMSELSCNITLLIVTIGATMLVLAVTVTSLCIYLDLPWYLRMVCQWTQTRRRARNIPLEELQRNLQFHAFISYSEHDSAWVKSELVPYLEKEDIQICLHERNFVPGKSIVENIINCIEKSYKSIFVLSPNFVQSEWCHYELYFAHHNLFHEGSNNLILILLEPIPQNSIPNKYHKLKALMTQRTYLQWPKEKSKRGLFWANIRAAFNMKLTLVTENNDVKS
structure (smiles),measurement,setting,value
CCCCCCCCCCCCCCC(C)C(=O)OCC[C@H](CSC[C@H](N)C(=O)N[C@@H](CO)C(=O)NCCOCCOCCOCCOCCOCCOCCOCCOCCOCCOCCOCCOCCOCCOCCOCCOCCOCCOCCOCCOCCOCCOCCOCCOCCOCCOCCOCCOCCC(=O)NCC(N)=O)OC(=O)C(C)CCCCCCCCCCCCCC (stereo partly drawn) [Compound 36],"TLR2 activity (HEK-BLUE-hTLR2 assay, FIG. 4)",human TLR2 (hTLR2),significant activity at TLR2
same,stability over the 9 day test period,[1]; pH 5 EDTA/saline,substantial stability
same,stability under the accelerated conditions relative to comparator compound,[1]; versus compound (8) of WO2019/119067,superior stability
